ChEMBL document CHEMBL4004825 (J Med Chem, 2017)
Activity calls are given as the source filed them. No cut-off for these calls is given here.

Experiments:
[1] = Half-life in Sprague-Dawley rat blood at 1 uM by LC-MS/MS analysis; format: ADME, tissue-based
[2] = Stability in rat liver microsomes; format: ADME, microsome; details: read-out: Stability
[3] = Half-life in human whole blood at 1 uM by LC-MS/MS analysis; format: ADME
[4] = target: T1, Tyrosine-protein kinase JAK1 (Homo sapiens, UniProt P23458); test: Inhibition of recombinant human GST-tagged cytoplasmic JAK1 catalytic domain (866 to 1154 residues) expressed in baculovirus expression system using 5FAM-KKSRGDYMTMQID as substrate in presence of 40 uM ATP by microfluidic assay
T1 sequence (P23458 whole entry, the tested form may be a part): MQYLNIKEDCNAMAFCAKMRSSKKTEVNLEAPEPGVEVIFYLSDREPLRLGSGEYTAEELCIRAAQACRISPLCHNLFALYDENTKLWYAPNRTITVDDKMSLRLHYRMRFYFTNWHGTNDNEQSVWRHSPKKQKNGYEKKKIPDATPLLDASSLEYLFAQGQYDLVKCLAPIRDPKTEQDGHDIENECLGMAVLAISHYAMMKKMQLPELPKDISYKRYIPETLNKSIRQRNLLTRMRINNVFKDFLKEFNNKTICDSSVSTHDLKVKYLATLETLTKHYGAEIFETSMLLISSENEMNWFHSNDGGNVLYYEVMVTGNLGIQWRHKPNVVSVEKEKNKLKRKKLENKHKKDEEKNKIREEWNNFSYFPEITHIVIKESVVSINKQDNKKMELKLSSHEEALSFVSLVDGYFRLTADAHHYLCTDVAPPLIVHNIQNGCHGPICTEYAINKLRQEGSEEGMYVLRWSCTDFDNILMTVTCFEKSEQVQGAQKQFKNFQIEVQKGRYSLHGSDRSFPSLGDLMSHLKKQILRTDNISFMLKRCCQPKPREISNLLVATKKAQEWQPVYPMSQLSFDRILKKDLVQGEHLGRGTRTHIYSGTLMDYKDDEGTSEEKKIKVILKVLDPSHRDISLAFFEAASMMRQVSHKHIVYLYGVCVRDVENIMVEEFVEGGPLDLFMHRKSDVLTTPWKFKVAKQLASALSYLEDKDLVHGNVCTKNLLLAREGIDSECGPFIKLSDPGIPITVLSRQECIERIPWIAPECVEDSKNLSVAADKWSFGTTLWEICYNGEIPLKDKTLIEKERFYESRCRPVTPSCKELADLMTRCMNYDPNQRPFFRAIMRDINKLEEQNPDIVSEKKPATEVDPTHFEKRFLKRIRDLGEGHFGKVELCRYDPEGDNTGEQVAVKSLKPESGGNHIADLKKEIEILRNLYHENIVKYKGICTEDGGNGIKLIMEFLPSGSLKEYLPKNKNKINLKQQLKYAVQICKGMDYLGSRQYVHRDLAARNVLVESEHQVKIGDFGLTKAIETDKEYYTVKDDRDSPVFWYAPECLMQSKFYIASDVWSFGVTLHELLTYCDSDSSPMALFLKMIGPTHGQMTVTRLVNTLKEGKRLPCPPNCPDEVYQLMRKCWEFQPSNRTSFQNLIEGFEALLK

[5] = target: T2, Tyrosine-protein kinase JAK3 (Homo sapiens, UniProt P52333); test: Inhibition of JAK3 in human whole blood assessed as inhibition of IL-15 induced STAT5 phosphorylation preincubated for 45 mins followed by IL-15 addition and measured after 15 mins by Alexa Fluor 647 staining based flow cytometric analysis
T2 sequence (P52333 whole entry): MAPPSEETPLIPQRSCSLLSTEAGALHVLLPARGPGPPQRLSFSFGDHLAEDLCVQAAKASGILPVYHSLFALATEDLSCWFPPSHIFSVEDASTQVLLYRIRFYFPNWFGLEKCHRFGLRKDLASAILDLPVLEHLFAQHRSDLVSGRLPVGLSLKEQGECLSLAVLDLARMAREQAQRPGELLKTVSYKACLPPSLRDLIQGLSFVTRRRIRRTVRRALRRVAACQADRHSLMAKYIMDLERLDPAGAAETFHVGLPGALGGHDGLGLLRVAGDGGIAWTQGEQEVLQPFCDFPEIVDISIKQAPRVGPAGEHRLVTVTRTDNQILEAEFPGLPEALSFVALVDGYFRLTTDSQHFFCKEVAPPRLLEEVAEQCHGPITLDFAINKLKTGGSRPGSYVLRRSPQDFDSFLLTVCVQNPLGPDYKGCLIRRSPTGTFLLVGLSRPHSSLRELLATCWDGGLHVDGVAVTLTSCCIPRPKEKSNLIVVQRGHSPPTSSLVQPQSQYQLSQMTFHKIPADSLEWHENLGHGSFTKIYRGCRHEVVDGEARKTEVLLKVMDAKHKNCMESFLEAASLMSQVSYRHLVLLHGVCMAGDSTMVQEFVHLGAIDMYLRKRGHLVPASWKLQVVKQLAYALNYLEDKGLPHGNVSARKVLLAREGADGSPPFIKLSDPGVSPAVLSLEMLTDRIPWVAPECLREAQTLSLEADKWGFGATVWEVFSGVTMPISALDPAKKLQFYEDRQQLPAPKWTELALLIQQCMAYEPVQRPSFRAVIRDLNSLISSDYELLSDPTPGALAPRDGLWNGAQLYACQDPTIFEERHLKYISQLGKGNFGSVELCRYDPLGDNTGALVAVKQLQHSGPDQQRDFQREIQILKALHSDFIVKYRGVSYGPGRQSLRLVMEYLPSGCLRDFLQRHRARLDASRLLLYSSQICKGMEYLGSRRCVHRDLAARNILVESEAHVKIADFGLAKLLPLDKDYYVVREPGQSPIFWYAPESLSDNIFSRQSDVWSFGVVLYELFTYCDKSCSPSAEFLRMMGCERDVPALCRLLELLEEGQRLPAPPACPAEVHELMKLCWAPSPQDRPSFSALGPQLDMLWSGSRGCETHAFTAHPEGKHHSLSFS

[6] = target: T1, Tyrosine-protein kinase JAK1; test: Inhibition of recombinant human GST-tagged cytoplasmic JAK1 catalytic domain (866 to 1154 residues) expressed in baculovirus expression system using 5FAM-KKSRGDYMTMQID as substrate in presence of 1 mM ATP by microfluidic assay
[7] = target: T2, Tyrosine-protein kinase JAK3; test: Inhibition of recombinant human GST-tagged cytoplasmic JAK3 catalytic domain (781 to 1124 residues) expressed in baculovirus expression system using FITC-KGGEEEEYFELVKK as substrate in presence of 1 mM ATP by microfluidic assay
[8] = Permeability in RRCK cells; format: ADME, cell-based, Canis lupus familiaris, MDCKII-LE; details: dog, MDCK; read-out: permeability
[9] = target: Tyrosine-protein kinase JAK2 (Homo sapiens, UniProt O60674); test: Inhibition of recombinant human GST-tagged cytoplasmic JAK2 catalytic domain (809 to 1153+9 residues) expressed in baculovirus expression system using FITC-KGGEEEEYFELVKK as substrate in presence of 1 mM ATP by microfluidic assay
Tyrosine-protein kinase JAK2, sequence (O60674 whole entry, the tested form may be a part): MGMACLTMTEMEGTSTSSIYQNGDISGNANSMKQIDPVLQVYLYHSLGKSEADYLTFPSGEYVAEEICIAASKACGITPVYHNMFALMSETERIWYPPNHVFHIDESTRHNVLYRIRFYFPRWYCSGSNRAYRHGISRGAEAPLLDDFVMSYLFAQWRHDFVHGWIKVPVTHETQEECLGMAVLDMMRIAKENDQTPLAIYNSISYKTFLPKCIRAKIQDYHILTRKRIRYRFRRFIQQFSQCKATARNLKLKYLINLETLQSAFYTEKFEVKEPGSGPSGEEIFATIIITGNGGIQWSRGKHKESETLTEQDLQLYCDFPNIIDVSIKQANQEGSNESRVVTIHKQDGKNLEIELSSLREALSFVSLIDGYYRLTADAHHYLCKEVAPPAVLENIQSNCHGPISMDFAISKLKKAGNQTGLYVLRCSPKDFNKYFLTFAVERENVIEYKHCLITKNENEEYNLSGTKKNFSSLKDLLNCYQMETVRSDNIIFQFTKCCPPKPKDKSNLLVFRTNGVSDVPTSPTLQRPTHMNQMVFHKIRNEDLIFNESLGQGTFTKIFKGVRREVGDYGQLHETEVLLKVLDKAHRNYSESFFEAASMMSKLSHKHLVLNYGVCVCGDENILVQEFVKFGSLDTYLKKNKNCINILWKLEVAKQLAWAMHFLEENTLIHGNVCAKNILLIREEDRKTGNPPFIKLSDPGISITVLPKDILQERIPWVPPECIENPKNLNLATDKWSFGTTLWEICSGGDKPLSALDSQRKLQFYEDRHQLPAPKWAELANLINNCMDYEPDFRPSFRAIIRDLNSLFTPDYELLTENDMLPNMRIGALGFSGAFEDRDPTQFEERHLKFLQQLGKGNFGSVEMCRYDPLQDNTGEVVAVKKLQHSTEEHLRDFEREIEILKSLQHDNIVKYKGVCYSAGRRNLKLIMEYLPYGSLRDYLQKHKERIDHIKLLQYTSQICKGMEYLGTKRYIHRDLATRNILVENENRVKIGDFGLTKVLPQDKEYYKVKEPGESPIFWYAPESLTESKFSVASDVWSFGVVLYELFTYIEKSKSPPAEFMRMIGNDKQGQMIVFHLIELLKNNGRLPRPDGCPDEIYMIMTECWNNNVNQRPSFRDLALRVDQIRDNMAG

[10] = target: Non-receptor tyrosine-protein kinase TYK2 (Homo sapiens, UniProt P29597); test: Inhibition of recombinant human His-tagged TYK2 expressed in baculovirus infected sf21 cells using 5FAM-KKSRGDYMTMQID as substrate in presence of 1 mM ATP by microfluidic assay
Non-receptor tyrosine-protein kinase TYK2, sequence (P29597 whole entry): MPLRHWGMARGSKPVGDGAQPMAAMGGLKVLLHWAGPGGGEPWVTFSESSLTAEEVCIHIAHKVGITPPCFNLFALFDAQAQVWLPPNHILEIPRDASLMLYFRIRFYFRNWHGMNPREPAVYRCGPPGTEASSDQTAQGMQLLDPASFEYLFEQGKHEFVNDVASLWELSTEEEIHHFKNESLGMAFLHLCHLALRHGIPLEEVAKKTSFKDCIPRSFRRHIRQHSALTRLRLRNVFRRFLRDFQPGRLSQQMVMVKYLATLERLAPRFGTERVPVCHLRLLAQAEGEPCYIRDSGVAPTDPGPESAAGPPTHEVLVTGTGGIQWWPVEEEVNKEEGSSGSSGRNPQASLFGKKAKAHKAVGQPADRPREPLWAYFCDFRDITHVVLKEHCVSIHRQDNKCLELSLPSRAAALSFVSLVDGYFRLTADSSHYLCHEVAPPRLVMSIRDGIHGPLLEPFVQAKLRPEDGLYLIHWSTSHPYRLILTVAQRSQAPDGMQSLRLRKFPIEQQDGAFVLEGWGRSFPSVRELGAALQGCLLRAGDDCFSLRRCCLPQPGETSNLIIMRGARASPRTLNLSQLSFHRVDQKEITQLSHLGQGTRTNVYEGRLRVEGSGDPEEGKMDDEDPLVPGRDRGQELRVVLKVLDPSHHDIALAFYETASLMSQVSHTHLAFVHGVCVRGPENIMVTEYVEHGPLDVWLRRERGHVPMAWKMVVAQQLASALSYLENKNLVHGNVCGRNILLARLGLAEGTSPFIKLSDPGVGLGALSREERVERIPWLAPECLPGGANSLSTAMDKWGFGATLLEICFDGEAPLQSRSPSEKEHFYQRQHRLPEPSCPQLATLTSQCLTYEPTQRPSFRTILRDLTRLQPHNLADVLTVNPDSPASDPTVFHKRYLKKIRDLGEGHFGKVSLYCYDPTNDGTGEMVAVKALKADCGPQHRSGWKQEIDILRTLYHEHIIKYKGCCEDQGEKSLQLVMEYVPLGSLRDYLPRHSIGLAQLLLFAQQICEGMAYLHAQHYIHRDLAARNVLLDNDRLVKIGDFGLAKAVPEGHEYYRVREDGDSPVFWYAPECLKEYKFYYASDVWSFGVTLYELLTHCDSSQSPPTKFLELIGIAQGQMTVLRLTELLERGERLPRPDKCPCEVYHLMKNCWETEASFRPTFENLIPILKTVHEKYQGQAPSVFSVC

[11] = target: T2, Tyrosine-protein kinase JAK3; test: Inhibition of JAK3 in human PBMC assessed as inhibition of IL-15 induced STAT5 phosphorylation preincubated for 75 mins followed by IL-15 addition and measured after 15 mins by Alexa Fluor 647 staining based flow cytometry
[12] = Stability in human liver microsomes; format: ADME, microsome; details: read-out: Stability
[13] = Clearance in rat in presence of CYP450 inhibitor ABT; format: ADME; details: with ABT (CYP450 inhibitor)
[14] = target: T2, Tyrosine-protein kinase JAK3; test: Inhibition of recombinant human GST-tagged cytoplasmic JAK3 catalytic domain (781 to 1124 residues) expressed in baculovirus expression system using FITC-KGGEEEEYFELVKK as substrate in presence of 4 uM ATP by microfluidic assay
[15] = Clearance in rat in absence of CYP450 inhibitor ABT; format: ADME
[16] = Stability in human whole blood assessed as GST-mediated clearance by measuring half-life at 1 uM by LC-MS/MS analysis; format: ADME
[17] = tested on: Mus musculus; test: Anti-inflammatory activity in sheep RBC-sensitized BALB/c mouse model of delayed-type hypersensitivity assessed as reduction in right hind foot pad thickness at 30 mg/kg, po administered twice daily for 7 days pretreated for 1 day followed by SRBC challenge and subsequent compound treatment for 6 days measured 24 hrs post SRBC rechallenge on day 6; format: functional, organism-based
[18] = tested on: Mus musculus; test: Anti-inflammatory activity in po dosed sheep RBC-sensitized BALB/c mouse model of delayed-type hypersensitivity assessed as reduction in right hind foot pad thickness administered once daily for 7 days pretreated for 1 day followed by SRBC challenge and subsequent compound treatment for 6 days measured 24 hrs post SRBC rechallenge on day 6; format: functional, organism-based

| IC50 [4] | IC50 [6] | IC50 [7] | IC50 [9] | IC50 [10] | IC50 [14] | SMILES | further results |
| --- | --- | --- | --- | --- | --- | --- | --- |
| 1400 nM | > 10000 nM | 56 nM | > 10000 nM | > 10000 nM |  | C=CC(=O)N1CCC[C@@H](Nc2ncnc3[nH]ccc23)C1 | half-life at 1 µM [1]: 1.63 h; microsomal CLint [2]: < 15 µL/min/mg; half-life at 1 µM [3]: 5.53 h; IC50 [5]: 580 nM; Papp [8]: 8 ×10⁻⁶ cm/s; IC50 [11]: 107 nM; microsomal CLint [12]: 8 µL/min/mg |
| 863 nM | > 10000 nM | > 10000 nM | > 10000 nM | > 10000 nM | 372 nM | CC(=O)N1CC[C@H]2CCN(c3ncnc4[nH]ccc34)[C@H]2C1 | clearance [13]: 10 mL/min/kg; microsomal CLint [2]: 25 µL/min/mg; Papp [8]: 16 ×10⁻⁶ cm/s; clearance [15]: 76 mL/min/kg; microsomal CLint [12]: < 8 µL/min/mg |
|  |  | > 1000 nM |  |  |  | C=CC(=O)N1CCC[C@@H](Nc2ncnc3[nH]ccc23)[C@H]1C (racemic) | half-life at 1 µM [16]: > 6 h |
| 1150 nM | 7820 nM | 3840 nM | > 10000 nM | > 10000 nM | 18 nM | C=CC(=O)N1CCC[C@@H](N(C)c2ncnc3[nH]ccc23)C1 |  |
|  |  |  |  |  |  | C=CC(=O)N1CC[C@H](C)[C@@H](Nc2ncnc3[nH]ccc23)C1 | half-life at 1 µM [16]: > 5 h |
|  |  |  |  |  |  | C=CC(=O)N1C[C@@H](C)C[C@@H](Nc2ncnc3[nH]ccc23)C1 (single isomer, unassigned) | half-life at 1 µM [16]: > 4.17 h |
|  |  |  |  |  |  | C[C@@H]1CCN(C(=O)CC#N)C[C@@H]1N(C)c1ncnc2[nH]ccc12 | Activity [17]: Active |
| 2290 nM | > 10000 nM | > 10000 nM | > 10000 nM | > 10000 nM | 1610 nM | C/C=C/C(=O)N1CCC[C@@H](Nc2ncnc3[nH]ccc23)C1 |  |
| 984 nM | > 10000 nM |  | > 10000 nM | > 10000 nM |  | C=CC(=O)N1CC[C@H]2CCN(c3ncnc4[nH]ccc34)[C@H]2C1 | half-life at 1 µM [1]: 2.73 h; clearance [13]: 81 mL/min/kg; microsomal CLint [2]: 70 µL/min/mg; Activity [18]: Dose-dependent effect; half-life at 1 µM [3]: 3.2 h; Papp [8]: 20 ×10⁻⁶ cm/s; clearance [15]: 109 mL/min/kg; microsomal CLint [12]: 12.2 µL/min/mg |
| 274 nM | 988 nM | 1930 nM | 2030 nM | > 10000 nM |  | C=CC(=O)N1CC[C@@H](C)[C@@H](N(C)c2ncnc3[nH]ccc23)C1 |  |
| 966 nM | 8710 nM | 29 nM | > 10000 nM | > 10000 nM | 0.3 nM | C=CC(=O)Nc1cccc(-c2ncnc3[nH]ccc23)c1 | IC50 [5]: 2280 nM; IC50 [11]: 32 nM |
